From ChEMBL document CHEMBL3769343, “Spiromastilactones: A new class of influenza virus inhibitors from deep-sea fungus” (Eur J Med Chem, 2016)
The source made the active and inactive calls. No cut-off for these calls is given here.

Tests used:
Influenza A virus [1] = assay: Antiviral activity against Influenza A virus A/WSN/1933 (H1N1) infected in MDCK cells assessed as protection against virus induced cytopathic effect after 40 hrs by Celltiter-Glo assay; type: functional, organism-based
[2] = system: Influenza A virus (A/WSN/1933(H1N1)); assay: Binding affinity to Influenza A virus A/WSN/33 (H1N1) HA1 protein by surface plasmon resonance assay
[3] = Inhibition of Influenza A virus A/WSN/33 (H1N1) HA1 protein by surface plasmon resonance assay; parameters: species or system Influenza A virus (A/WSN/1933(H1N1))
[4] = Cytotoxicity against MDCK cells after 40 hrs by Celltiter-Glo assay; type: cell-based, Canis lupus familiaris; conditions: dog
Influenza B virus = assay: Antiviral activity against influenza B virus B/SZ/155 infected in dog MDCK cells assessed as inhibition of virus induced cytopathic effect after 40 hrs by Cell-Titer-Glo assay; type: functional, organism-based; conditions: B/SZ/155, MDCK
[5] = system: Influenza A virus (A/WSN/1933(H1N1)); assay: Binding affinity to Influenza A virus A/WSN/33 (H1N1) HA1 protein assessed as decrease in protein affinity to sialic acid receptor at 2.5 uM by surface plasmon resonance assay
Influenza A virus [6] = assay: Antiviral activity against Influenza A virus A/WSN/33 (H1N1) assessed as inhibition of viral infection in dog MDCK cells at 50 uM after 36 hrs; type: functional; conditions: A/WSN/1933(H1N1)
[7] = system: Influenza A virus (A/WSN/1933(H1N1)); assay: Binding affinity to Influenza A virus A/WSN/33 (H1N1) HA1 protein assessed as decrease in protein affinity to sialic acid receptor at 20 uM by surface plasmon resonance assay
[8] = system: Influenza A virus (A/WSN/1933(H1N1)); assay: Binding affinity to Influenza A virus A/WSN/33 (H1N1) HA1 protein assessed as decrease in protein affinity to sialic acid receptor at 5 uM by surface plasmon resonance assay
A549 = assay: Binding affinity to Influenza A virus A/WSN/33 (H1N1) HA1 protein assessed as inhibition of virus attachment to human A549 cells at 10 to 50 uM after 1 hr by DAPI staining based immunofluorescence microscopic analysis; type: cell-based; conditions: Influenza A virus (A/WSN/1933(H1N1))
[9] = Binding affinity to Influenza A virus A/WSN/33 (H1N1) HA1 protein assessed as decrease in protein affinity to sialic acid receptor by measuring dissociation constant by surface plasmon resonance assay (reference value: 0.001473/Ms); parameters: species or system Influenza A virus (A/WSN/1933(H1N1))
HEK-293T [10] = assay: Inhibition of Influenza A virus RNP infected in HEK293T cells assessed as decrease in ratio of Fluc to Rluc; type: cell-based; conditions: Influenza A virus (A/WSN/1933(H1N1))
Influenza A virus [11] = assay: Antiviral activity against Influenza A virus A/WSN/33 (H1N1) infected in dog MDCK cells assessed as reduction in nucleoprotein level at 100 uM measured at 2 to 5 hrs by Western blot analysis relative to control; type: functional, organism-based; conditions: A/WSN/1933(H1N1)
[12] = system: Influenza A virus (A/WSN/1933(H1N1)); assay: Binding affinity to Influenza A virus A/WSN/33 (H1N1) HA1 protein assessed as decrease in protein affinity to sialic acid receptor at 40 uM by surface plasmon resonance assay relative to control
HeLa = assay: Binding affinity to Influenza A virus A/WSN/33 (H1N1) HA2 protein assessed as polykaryon formation in human HeLa cells preincubated with test compound for 15 mins followed by further test compound addition at pH 4.9 for 15 mins by crystal violet staining-based microscopic analysis; type: cell-based; conditions: Influenza A virus (A/WSN/1933(H1N1))
Influenza A virus [13] = assay: Antiviral activity against Influenza A virus A/WSN/33 (H1N1) assessed as inhibition of viral infection in dog MDCK cells at 50 uM pretreated with virus for 30 mins followed by host cell inoculation for 1 hr measured after 36 hrs; type: functional; conditions: A/WSN/1933(H1N1)
Influenza A virus [14] = assay: Antiviral activity against Influenza A virus A/WSN/33 (H1N1) assessed as inhibition of viral infection in dog MDCK cells at 50 uM pretreated with cells for 30 mins followed by exposure to virus for 1 hr measured after 36 hrs; type: functional; conditions: A/WSN/1933(H1N1)
Influenza A virus [15] = assay: Antiviral activity against Influenza A virus A/WSN/33 (H1N1) infected in dog MDCK cells assessed as reduction in nucleoprotein level at 100 uM measured over 10 hrs by Western blot analysis relative to control; type: functional, organism-based; conditions: A/WSN/1933(H1N1)
Influenza A virus [16] = assay: Antiviral activity against Influenza A virus A/WSN/33 (H1N1) infected in dog MDCK cells assessed as reduction in nucleoprotein level at 100 uM measured at 8 to 10 hrs by Western blot analysis relative to control; type: functional, organism-based; conditions: A/WSN/1933(H1N1)
[17] = system: Influenza A virus (A/WSN/1933(H1N1)); assay: Inhibition of Influenza A virus A/WSN/33 (H1N1) HA1 protein assessed as inhibition of virus induced aggregation of chicken erythrocytes after 30 mins
HEK-293T [18] = assay: Effect on renilla luciferase expressed in HEK293T cells at 6.25 to 50 uM after 48 hrs; type: cell-based
Influenza A virus [19] = assay: Antiviral activity against Influenza A virus A/WSN/33 (H1N1) infected in human A549 cells assessed as inhibition of mRNA of M1 segment production after 7 hrs by qRT-PCR analysis; type: functional, organism-based; conditions: A/WSN/1933(H1N1)
[20] = system: Influenza A virus (A/WSN/1933(H1N1)); assay: Binding affinity to Influenza A virus A/WSN/33 (H1N1) HA1 protein assessed as decrease in protein affinity to sialic acid receptor at 0.625 uM by surface plasmon resonance assay
[21] = Binding affinity to Influenza A virus A/WSN/33 (H1N1) HA1 protein assessed as decrease in protein affinity to sialic acid receptor by surface plasmon resonance assay (reference value: 70 nM); parameters: species or system Influenza A virus (A/WSN/1933(H1N1))
Influenza A virus [22] = assay: Antiviral activity against Influenza A virus A/WSN/33 (H1N1) infected in dog MDCK cells assessed as inhibition of viral nucleoprotein synthesis after 6 hrs by DAPI staining based immunofluorescence microscopy; type: functional, organism-based; conditions: A/WSN/1933(H1N1)
[23] = system: Influenza A virus (A/WSN/1933(H1N1)); assay: Binding affinity to Influenza A virus A/WSN/33 (H1N1) HA1 protein assessed as decrease in protein affinity to sialic acid receptor by measuring association constant by surface plasmon resonance assay (reference value: 20810/s)
Influenza A virus [24] = assay: Antiviral activity against Influenza A virus A/WSN/33 (H1N1) infected in dog MDCK cells assessed as reduction in nucleoprotein level at 100 uM measured at 5 to 8 hrs by Western blot analysis relative to control; type: functional, organism-based; conditions: A/WSN/1933(H1N1)
[25] = system: Influenza A virus (A/WSN/1933(H1N1)); assay: Binding affinity to Influenza A virus A/WSN/33 (H1N1) HA1 protein assessed as decrease in protein affinity to sialic acid receptor at 10 uM by surface plasmon resonance assay
[26] = Binding affinity to Influenza A virus H3N2 HA3 protein by surface plasmon resonance assay
Influenza A virus [27] = assay: Antiviral activity against Influenza A virus A/WSN/33 (H1N1) infected in dog MDCK cells assessed as reduction in nucleoprotein level at 100 uM measured over 2 hrs by Western blot analysis relative to control; type: functional, organism-based; conditions: A/WSN/1933(H1N1)
Influenza A virus [28] = assay: Antiviral activity against Influenza A virus A/WSN/33 (H1N1) infected in human A549 cells assessed as inhibition of (-)vRNA production after 7 hrs by qRT-PCR analysis; type: functional, organism-based; conditions: A/WSN/1933(H1N1)
Influenza A virus [29] = assay: Antiviral activity against Influenza A virus A/WSN/33 (H1N1) infected in human A549 cells assessed as inhibition of (+)cRNA production after 7 hrs by qRT-PCR analysis; type: functional, organism-based; conditions: A/WSN/1933(H1N1)
[30] = Binding affinity to influenza B virus HA1 protein by surface plasmon resonance assay
[31] = system: Influenza A virus (A/WSN/1933(H1N1)); assay: Binding affinity to Influenza A virus A/WSN/33 (H1N1) HA1 protein assessed as decrease in protein affinity to sialic acid receptor at 1.25 uM by surface plasmon resonance assay

CCCc1cc(O)c(Cl)c(O)c1Oc1c(Cl)c(O)c(Cl)c2c1C(=O)O[C@@H]2CC
IC50 (Influenza A virus [1]): 30.7 µM | Ka [2]: 0.67 ×10⁴ /Ms | IC50 [3]: 30.7 µM | CC50 at 40 h [4]: > 100 µM

CCCc1c(Cl)c(O)cc(O)c1Oc1c(Cl)c(O)c(Cl)c2c1C(=O)O[C@@H]2CC
IC50 (Influenza A virus [1]): 27.6 µM | CC50 at 40 h [4]: > 50 µM

CCCc1c(Cl)c(O)c(Cl)c(OC)c1Oc1c(Cl)c(O)c(Cl)c2c1C(=O)O[C@@H]2CC
IC50 (Influenza A virus [1]): 22.6 µM | CC50 at 40 h [4]: > 100 µM

CCCc1c(Cl)c(OC)cc(OC)c1Oc1c(Cl)c(O)c(Cl)c2c1C(=O)O[C@@H]2CC
IC50 (Influenza A virus [1]): 16.2 µM | CC50 at 40 h [4]: > 50 µM

CCOC(=O)C1=C[C@@H](OC(CC)CC)[C@H](NC(C)=O)[C@@H](N)C1 [OSELTAMIVIR]
IC50 (Influenza A virus [1]): 10 µM | EC50 (Influenza B virus): > 83.2 µM | CC50 at 40 h [4]: > 100 µM

NC(=O)c1ncn([C@@H]2O[C@H](CO)[C@@H](O)[C@H]2O)n1 [RIBAVIRIN]
EC50 (Influenza B virus): 4.28 µM | CC50 at 40 h [4]: > 200 µM

CCCc1c(Cl)c(O)cc(OC)c1Oc1c(Cl)c(O)c(Cl)c2c1C(=O)O[C@@H]2CC
Activity [5]: 10.3 RU | inhibition at 50 µM (Influenza A virus [6]): 90% | Activity [7]: 98.2 RU | Activity [8]: 21 RU | inhibition (A549): Active | Kd [9]: 0.00187 M⁻¹ s⁻¹ | inhibition (HEK-293T [10]): Active | Activity (Influenza A virus [11]): Active | fold change (FC) [12]: 8 | Activity (HeLa): inactive | inhibition at 50 µM (Influenza A virus [13]): 40% | inhibition at 50 µM (Influenza A virus [14]): 25% | Activity (Influenza A virus [15]): Active | Activity (Influenza A virus [16]): inactive | inhibition [17]: Dose-dependent effect | Activity (HEK-293T [18]): inactive | inhibition (Influenza A virus [19]): Dose-dependent effect | Activity [20]: 3.3 RU | IC50 (Influenza A virus [1]): 6 µM | Kd [21]: 0.547 µM | inhibition (Influenza A virus [22]): Dose-dependent effect | Ka [23]: 3420 s⁻¹ | Activity (Influenza A virus [24]): Active | Activity [25]: 44.8 RU | Kd [26]: 18 µM | Activity (Influenza A virus [27]): Active | inhibition (Influenza A virus [28]): Dose-dependent effect | inhibition (Influenza A virus [29]): Dose-dependent effect | Kd [30]: 14 µM | Ka [2]: 2.3 ×10⁴ /Ms | Activity [31]: 5.4 RU | EC50 (Influenza B virus): 32 µM | IC50 [3]: 6 µM | CC50 at 40 h [4]: > 100 µM

CCCc1c(Cl)c(OC)c(Cl)c(OC)c1Oc1c(Cl)c(O)c(Cl)c2c1C(=O)O[C@@H]2CC
IC50 (Influenza A virus [1]): > 50 µM | CC50 at 40 h [4]: > 50 µM

CCCc1cc(O)cc(O)c1C(=O)O
IC50 (Influenza A virus [1]): > 100 µM | CC50 at 40 h [4]: > 100 µM

CC[C@H]1OC(=O)c2c(O)c(Cl)c(O)c(Cl)c21
IC50 (Influenza A virus [1]): > 100 µM | CC50 at 40 h [4]: > 100 µM
